According to ChEMBL document CHEMBL1629484, “1,2-diamino-ethane-substituted-6,7,8,9-tetrahydro-5H-pyrimido[4,5-d]azepines as TRPV1 antagonists with improved properties” (Bioorg Med Chem Lett, 2010):
Values after ≈ are worked out from the molar mass of the structure shown. Active and inactive are the calls of the source. No cut-off for these calls is given here.

test system: not listed separately; assay: Clearance in rat; type: ADME, organism-based; details: in vivo

Row | Structure (SMILES) | clearance [mL/min/kg]
1 | FC(F)(F)c1ccc(Nc2nc(N3CCOCC3)nc3c2CCN(c2ncccc2C(F)(F)F)CC3)cc1 | 51.7

target: T1, Transient receptor potential cation channel subfamily V member 1 (Rattus norvegicus, UniProt O35433); assay: Displacement of [3H]RTX from rat TRPV1 expressed in HEK cells; type: cell-based, HEK293; details: not given
T1 sequence (O35433 whole entry): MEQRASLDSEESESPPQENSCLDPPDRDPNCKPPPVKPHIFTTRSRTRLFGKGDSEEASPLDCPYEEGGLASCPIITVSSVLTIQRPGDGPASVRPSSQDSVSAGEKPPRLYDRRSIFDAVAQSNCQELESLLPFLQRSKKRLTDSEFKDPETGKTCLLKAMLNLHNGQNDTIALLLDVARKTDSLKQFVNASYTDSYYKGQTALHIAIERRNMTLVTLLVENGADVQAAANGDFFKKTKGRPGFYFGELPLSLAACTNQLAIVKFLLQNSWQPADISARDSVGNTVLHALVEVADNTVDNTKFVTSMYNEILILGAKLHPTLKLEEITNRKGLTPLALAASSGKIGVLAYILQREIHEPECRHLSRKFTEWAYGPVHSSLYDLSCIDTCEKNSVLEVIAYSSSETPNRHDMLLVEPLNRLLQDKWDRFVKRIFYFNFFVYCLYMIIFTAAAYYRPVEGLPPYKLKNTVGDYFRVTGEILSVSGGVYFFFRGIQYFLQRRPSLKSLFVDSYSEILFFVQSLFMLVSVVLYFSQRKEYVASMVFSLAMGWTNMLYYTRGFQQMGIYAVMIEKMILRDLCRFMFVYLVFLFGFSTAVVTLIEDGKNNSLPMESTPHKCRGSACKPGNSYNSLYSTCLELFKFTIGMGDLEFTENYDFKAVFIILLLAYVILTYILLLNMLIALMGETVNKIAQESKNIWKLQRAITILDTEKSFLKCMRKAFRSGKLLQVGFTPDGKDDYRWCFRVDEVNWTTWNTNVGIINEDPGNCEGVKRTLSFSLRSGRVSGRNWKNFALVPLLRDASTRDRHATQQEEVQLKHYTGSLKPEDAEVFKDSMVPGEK

Row | Structure (SMILES) | IC50 [nM]
2 | CC(C)CN1CCN(c2nc3c(c(Nc4ccc(C(F)(F)F)cc4)n2)CCN(c2ncccc2C(F)(F)F)CC3)CC1 | 330

target: T2, Transient receptor potential cation channel subfamily V member 1 (Homo sapiens, UniProt Q8NER1); assay: Inhibition of human TRPV1 expressed in HEK cells; type: cell-based, HEK293; details: not given
T2 sequence (Q8NER1 whole entry): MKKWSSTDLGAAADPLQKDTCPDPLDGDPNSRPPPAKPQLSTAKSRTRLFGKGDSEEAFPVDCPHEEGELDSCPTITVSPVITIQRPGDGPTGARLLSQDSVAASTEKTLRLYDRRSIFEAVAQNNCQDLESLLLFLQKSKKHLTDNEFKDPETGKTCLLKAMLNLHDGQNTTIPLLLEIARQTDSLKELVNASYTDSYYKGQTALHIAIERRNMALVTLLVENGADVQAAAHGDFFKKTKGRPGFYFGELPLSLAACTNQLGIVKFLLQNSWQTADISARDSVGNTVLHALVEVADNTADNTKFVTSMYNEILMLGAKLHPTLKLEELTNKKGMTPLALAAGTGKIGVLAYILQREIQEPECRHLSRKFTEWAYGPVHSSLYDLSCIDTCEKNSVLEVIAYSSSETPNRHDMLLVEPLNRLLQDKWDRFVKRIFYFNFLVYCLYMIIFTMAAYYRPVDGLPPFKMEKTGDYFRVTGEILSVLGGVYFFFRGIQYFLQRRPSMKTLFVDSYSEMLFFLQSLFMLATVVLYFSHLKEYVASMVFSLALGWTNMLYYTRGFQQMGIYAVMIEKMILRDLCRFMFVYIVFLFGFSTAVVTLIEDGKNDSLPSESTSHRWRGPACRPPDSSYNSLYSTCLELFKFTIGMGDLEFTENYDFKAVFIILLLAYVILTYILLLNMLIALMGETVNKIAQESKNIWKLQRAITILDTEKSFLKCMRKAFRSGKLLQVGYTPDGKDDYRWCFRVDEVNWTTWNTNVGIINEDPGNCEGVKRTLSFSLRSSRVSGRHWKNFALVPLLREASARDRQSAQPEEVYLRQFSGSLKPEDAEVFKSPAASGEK

Row | Structure (SMILES) | IC50 [nM]
3 | CC(C)CN1CCN(c2nc3c(c(Nc4ccc(C(F)(F)F)cc4)n2)CCN(c2ncccc2C(F)(F)F)CC3)CC1 | 67

test system: not listed separately; assay: Half life in fasted Sprague-Dawley rat at 0.5 mg/kg, iv and 2 mg/kg, po; type: ADME, organism-based; details: in vivo

Row | Structure (SMILES) | half-life [h]
4 | CC(C)N1CCN(c2nc3c(c(Nc4ccc(C(F)(F)F)cc4)n2)CCN(c2ncccc2C(F)(F)F)CC3)CC1 | 1.5
5 | CC(C)CN1CCN(c2nc3c(c(Nc4ccc(C(F)(F)F)cc4)n2)CCN(c2ncccc2C(F)(F)F)CC3)CC1 | 1.8
6 | FC(F)(F)c1ccc(Nc2nc(N3CCN(C4CC4)CC3)nc3c2CCN(c2ncccc2C(F)(F)F)CC3)cc1 | 1.6

target: T1, Transient receptor potential cation channel subfamily V member 1; assay: Inhibition of rat TRPV1 expressed in HEK cells; type: cell-based, HEK293; details: not given

Row | Structure (SMILES) | IC50 [nM]
7 | CC(C)CN1CCN(c2nc3c(c(Nc4ccc(C(F)(F)F)cc4)n2)CCN(c2ncccc2C(F)(F)F)CC3)CC1 | 63

target: T1, Transient receptor potential cation channel subfamily V member 1; assay: Antagonist activity at rat TRPV1 expressed in HEK293 cells assessed as inhibition of capsaicin-induced intracellular Ca2+ level by FLIPR assay; type: functional, cell-based; details: not given

Row | Structure (SMILES) | IC50 [nM]
8 | NC1CCN(c2nc3c(c(Nc4ccc(C(F)(F)F)cc4)n2)CCN(c2ncccc2C(F)(F)F)CC3)C1 (centres undefined) | > 5000
9 | CN(CC1CCCCN1C)c1nc2c(c(Nc3ccc(C(F)(F)F)cc3)n1)CCN(c1ncccc1C(F)(F)F)CC2 (centres undefined) | > 5000
10 | CC(C)N1CCN(c2nc3c(c(Nc4ccc(C(F)(F)F)cc4)n2)CCN(c2ncccc2C(F)(F)F)CC3)CC1 | 386
11 | CN(C)[C@H]1CCN(c2nc3c(c(Nc4ccc(C(F)(F)F)cc4)n2)CCN(c2ncccc2C(F)(F)F)CC3)C1 | 586
12 | CC(C)CN1CCN(c2nc3c(c(Nc4ccc(C(F)(F)F)cc4)n2)CCN(c2ncccc2C(F)(F)F)CC3)CC1 | 89
13 | FC(F)(F)c1ccc(Nc2nc(N3CCN(C4CC4)CC3)nc3c2CCN(c2ncccc2C(F)(F)F)CC3)cc1 | 45

test system: not listed separately; assay: Volume of distribution at steady state in fasted Sprague-Dawley rat at 0.5 mg/kg, iv and 2 mg/kg, po; type: ADME, organism-based; details: in vivo, read-out: Vdss

Row | Structure (SMILES) | Vd [L/kg]
14 | CC(C)N1CCN(c2nc3c(c(Nc4ccc(C(F)(F)F)cc4)n2)CCN(c2ncccc2C(F)(F)F)CC3)CC1 | 5.1
15 | CC(C)CN1CCN(c2nc3c(c(Nc4ccc(C(F)(F)F)cc4)n2)CCN(c2ncccc2C(F)(F)F)CC3)CC1 | 0.5
16 | FC(F)(F)c1ccc(Nc2nc(N3CCN(C4CC4)CC3)nc3c2CCN(c2ncccc2C(F)(F)F)CC3)cc1 | 1

test system: not listed separately; assay: Clearance in fasted Sprague-Dawley rat at 0.5 mg/kg, iv and 2 mg/kg, po; type: ADME, organism-based; details: in vivo

Row | Structure (SMILES) | clearance [mL/min/kg]
17 | CC(C)N1CCN(c2nc3c(c(Nc4ccc(C(F)(F)F)cc4)n2)CCN(c2ncccc2C(F)(F)F)CC3)CC1 | 80
18 | CC(C)CN1CCN(c2nc3c(c(Nc4ccc(C(F)(F)F)cc4)n2)CCN(c2ncccc2C(F)(F)F)CC3)CC1 | 11.7
19 | FC(F)(F)c1ccc(Nc2nc(N3CCN(C4CC4)CC3)nc3c2CCN(c2ncccc2C(F)(F)F)CC3)cc1 | 21.7

target: T2, Transient receptor potential cation channel subfamily V member 1; assay: Antagonist activity at human TRPV1 expressed in HEK293 cells assessed as inhibition of capsaicin-induced intracellular Ca2+ level by FLIPR assay; type: functional, cell-based; details: not given

Row | Structure (SMILES) | IC50 [nM]
20 | NC1CCN(c2nc3c(c(Nc4ccc(C(F)(F)F)cc4)n2)CCN(c2ncccc2C(F)(F)F)CC3)C1 (centres undefined) | 3700
21 | CN(CC1CCCCN1C)c1nc2c(c(Nc3ccc(C(F)(F)F)cc3)n1)CCN(c1ncccc1C(F)(F)F)CC2 (centres undefined) | 3330
22 | CN(C)[C@H]1CCN(c2nc3c(c(Nc4ccc(C(F)(F)F)cc4)n2)CCN(c2ncccc2C(F)(F)F)CC3)C1 | 185
23 | CC(C)CN1CCN(c2nc3c(c(Nc4ccc(C(F)(F)F)cc4)n2)CCN(c2ncccc2C(F)(F)F)CC3)CC1 | 11
24 | FC(F)(F)c1ccc(Nc2nc(N3CCN(C4CC4)CC3)nc3c2CCN(c2ncccc2C(F)(F)F)CC3)cc1 | 11

test system: Rattus norvegicus; assay: Analgesic activity against carrageenan-induced thermal hyperalgesia in rat at 5 mg/kg, po administered 1 hr before carrageenan challenge; type: functional, organism-based; set-up: dose 5 mg/kg; details: not given

Row | Structure (SMILES) | Activity
25 | CC(C)CN1CCN(c2nc3c(c(Nc4ccc(C(F)(F)F)cc4)n2)CCN(c2ncccc2C(F)(F)F)CC3)CC1 | Active

test system: not listed separately; assay: Aqueous equilibrium solubility of compound in simulated intestinal fluid at pH 6.8; type: physicochemical; details: not given

Row | Structure (SMILES) | solubility thermodynamic [µg/mL]
26 | NC1CCN(c2nc3c(c(Nc4ccc(C(F)(F)F)cc4)n2)CCN(c2ncccc2C(F)(F)F)CC3)C1 (centres undefined) | > 215
27 | CN(CC1CCCCN1C)c1nc2c(c(Nc3ccc(C(F)(F)F)cc3)n1)CCN(c1ncccc1C(F)(F)F)CC2 (centres undefined) | > 283
28 | CC(C)N1CCN(c2nc3c(c(Nc4ccc(C(F)(F)F)cc4)n2)CCN(c2ncccc2C(F)(F)F)CC3)CC1 | 2 (≈ 3.45 µM)
29 | CN(C)[C@H]1CCN(c2nc3c(c(Nc4ccc(C(F)(F)F)cc4)n2)CCN(c2ncccc2C(F)(F)F)CC3)C1 | 57 (≈ 101 µM)
30 | CC(C)CN1CCN(c2nc3c(c(Nc4ccc(C(F)(F)F)cc4)n2)CCN(c2ncccc2C(F)(F)F)CC3)CC1 | 11 (≈ 18.5 µM)
31 | FC(F)(F)c1ccc(Nc2nc(N3CCN(C4CC4)CC3)nc3c2CCN(c2ncccc2C(F)(F)F)CC3)cc1 | 9 (≈ 15.6 µM)

test system: not listed separately; assay: Terminal plasma concentration in rat at 5 mg/kg, po administered 5 hrs post-carrageenan challenge; type: ADME, organism-based; set-up: dose 5 mg/kg, route oral; details: read-out: Cp(T)

Row | Structure (SMILES) | concentration at 5 h [nM]
32 | CC(C)CN1CCN(c2nc3c(c(Nc4ccc(C(F)(F)F)cc4)n2)CCN(c2ncccc2C(F)(F)F)CC3)CC1 | 277

test system: Rattus norvegicus; assay: Analgesic activity against carrageenan-induced thermal hyperalgesia in rat assessed as maximal possible effect at 30 mg/kg, po administered 3 hrs post-carrageenan challenge; type: functional; details: not given

Row | Structure (SMILES) | Activity [%]
33 | CC(C)CN1CCN(c2nc3c(c(Nc4ccc(C(F)(F)F)cc4)n2)CCN(c2ncccc2C(F)(F)F)CC3)CC1 | 100

test system: not listed separately; assay: Cmax in fasted Sprague-Dawley rat at 2 mg/kg, po; type: ADME, organism-based; set-up: dose 2 mg/kg, route oral; details: in vivo

Row | Structure (SMILES) | Cmax [nM]
34 | CC(C)CN1CCN(c2nc3c(c(Nc4ccc(C(F)(F)F)cc4)n2)CCN(c2ncccc2C(F)(F)F)CC3)CC1 | 300

test system: not listed separately; assay: Aqueous equilibrium solubility of compound in phosphate buffer at pH 2; type: physicochemical; details: not given

Row | Structure (SMILES) | solubility thermodynamic [µg/mL]
35 | NC1CCN(c2nc3c(c(Nc4ccc(C(F)(F)F)cc4)n2)CCN(c2ncccc2C(F)(F)F)CC3)C1 (centres undefined) | > 215
36 | CN(CC1CCCCN1C)c1nc2c(c(Nc3ccc(C(F)(F)F)cc3)n1)CCN(c1ncccc1C(F)(F)F)CC2 (centres undefined) | > 283
37 | CC(C)N1CCN(c2nc3c(c(Nc4ccc(C(F)(F)F)cc4)n2)CCN(c2ncccc2C(F)(F)F)CC3)CC1 | > 232
38 | CN(C)[C@H]1CCN(c2nc3c(c(Nc4ccc(C(F)(F)F)cc4)n2)CCN(c2ncccc2C(F)(F)F)CC3)C1 | > 226
39 | CC(C)CN1CCN(c2nc3c(c(Nc4ccc(C(F)(F)F)cc4)n2)CCN(c2ncccc2C(F)(F)F)CC3)CC1 | > 237
40 | FC(F)(F)c1ccc(Nc2nc(N3CCN(C4CC4)CC3)nc3c2CCN(c2ncccc2C(F)(F)F)CC3)cc1 | 230 (≈ 398 µM)

test system: not listed separately; assay: Terminal plasma concentration in rat at 30 mg/kg, po administered 5 hrs post-carrageenan challenge; type: ADME, organism-based; set-up: dose 30 mg/kg, route oral; details: read-out: Cp(T)

Row | Structure (SMILES) | concentration at 5 h [nM]
41 | CC(C)CN1CCN(c2nc3c(c(Nc4ccc(C(F)(F)F)cc4)n2)CCN(c2ncccc2C(F)(F)F)CC3)CC1 | 1050

test system: not listed separately; assay: Tmax in fasted Sprague-Dawley rat at 2 mg/kg, po; type: ADME, organism-based; set-up: dose 2 mg/kg, route oral; details: in vivo

Row | Structure (SMILES) | Tmax [h]
42 | CC(C)CN1CCN(c2nc3c(c(Nc4ccc(C(F)(F)F)cc4)n2)CCN(c2ncccc2C(F)(F)F)CC3)CC1 | 2.3

test system: not listed separately; assay: Oral bioavailability in fasted Sprague-Dawley rat at 2 mg/kg; type: ADME, organism-based; details: in vivo

Row | Structure (SMILES) | bioavailability [%]
43 | CC(C)CN1CCN(c2nc3c(c(Nc4ccc(C(F)(F)F)cc4)n2)CCN(c2ncccc2C(F)(F)F)CC3)CC1 | 21

test system: not listed separately; assay: AUC (infinity) in fasted Sprague-Dawley rat at 2 mg/kg, po; type: ADME, organism-based; set-up: time infinity, dose 2 mg/kg, route oral; details: plasma

Row | Structure (SMILES) | AUC(0-inf) [ng·h/mL]
44 | CC(C)CN1CCN(c2nc3c(c(Nc4ccc(C(F)(F)F)cc4)n2)CCN(c2ncccc2C(F)(F)F)CC3)CC1 | 598
